Like-named read-outs stand apart in the source and are kept apart here.
What was measured:
DBA-2 mice = test: Glomerular filtration rate (GFR) by [14C]inulin clearance after bolus drug; type: in vivo
Procedure: British Journal of Cancer (1998) 78(11), 1457-1463 ? […] In contrast to Tomudex (ZD1694), ZD9331 may therefore be active against tumours with low FPGS activity. […] In view of the history of renal toxicity with some earlier TS inhibitors and the possible therapeutic use of bolus ZD9331, we have examined the effects of bolus ZD9331 dose and route of administration on plasma and kidney pharmacokinetics and renal function in mice. Renal function was assessed by measuring [14C]inulin clearance, and drug concentrations were assayed by reverse-phase high-performance liquid chromatography (HPLC). […] Kidney drug concentrations were slightly elevated in iv.- versus i.p.-treated animals at the low dose (50 mg kg-'), with a correspondingly larger area under the curve. However, at the highest dose (200 mg kg-'), peak kidney drug concentrations were 20-fold higher following i.v. administration than after i.p., with marked kidney retention, resulting in a 50-fold greater kidney drug exposure for the i.v. versus the i.p. route. […] These adverse effects can be readily overcome by i.p. administration, indicating the likely need for short infusions in clinical settings. […] Early studies established that nephrotoxicity may be a result of poor aqueous solubility of 2-amino compounds such as CB3717, and it was shown that 2-desamino CB3717 was more water soluble and less nephrotoxic (Jones et al, 1989; 1996). […] These polyglutamate forms also exibit intra- cellular retention, which may contribute to toxicity as well as anti- tumour activity. […] Such compounds might be expected to show activity in a different spectrum of tumours from ZD1694 and to have a more manageable toxicity profile because of the lack of retained cyto- toxic metabolites. […] MATERIALS AND METHODS Drug administration and animals The compound ZD933 1 (Figure 1) was provided as a white crystalline salt. ['4C]inulin was provided as a carboxylic acid (Amersham, UK, 250 µCi in 5 ml, specific activity 6.6 mCi mmol-') and diluted to an activity of 5 µCi ml-' in phosphate-buffered saline (PBS). ZD9331 was dissolved in 0.05 M sodium bicarbonate, 1457 1458 Ml Walton et al ~~ N Ny~~~14COOHH 0 H IN H N CH ~~~~H , 4 H3C N3 H Figure 1 The chemical structure of ZD9331 adjusted to pH 9.0 and administered either i.v. via the tail vein or i.p. at 0.01 ml g-' mouse body weight. [14C]inulin was administered at 0.05 gCi g-' (i.e. 0.01 ml g-') i.v. via the tail vein. Adult female DBA-2 mice were obtained from OLAC (Bicester, UK) and used at 8-12 weeks of age at a body weight of 15-25 g. Mice were housed in cages containing untreated sawdust and allowed access to food and water ad libitum. Sample preparation Plasma and tissue samples were prepared using standard tech- niques (Walton et al, 1996). Briefly, whole blood was obtained by cardiac puncture into heparinized syringes from halothane- anaesthetized mice. Plasma was prepared by centrifugation at 12 000 r.p.m. x 2 min in a bench-top microcentrifuge. Kidney and liver tissues were rapidly removed, washed and snap frozen on dry ice. Frozen plasma and tissues were stored at -20?C for up to 4 weeks prior to analysis. Individual samples were thawed on ice and handled rapidly. ZD9331 was extracted from whole plasma or tissue homogenates (33% w/v in 0.1 M Tris, pH 10.0) by the addition of an equal volume of acetonitrile, mixing and centrifugation and the super- natant removed for injection into the HPLC system. Samples were diluted with Tris buffer (0.1 M, pH 10.0) on to the linear part of the calibration curve prior to HPLC analysis. Extraction efficiencies were >95%. HPLC analysis Concentrations of ZD9331 were measured in biological samples using reversed phase HPLC on equipment supplied by Kontron (Watford, UK). Separations were carried out using stainless-steel columns heated at 45?C and packed with C18 Supelcosil ODS (10 cm x 4.6 mm, 5 µm bead size, Sigma, Dorset) and protected with NewGuard C18 columns (Anachem, Luton, UK). […]

L5178Y (TK-/-) lymphoma = system: L5178Y (TK-/-) lymphoma; parameters: method as in Stephens et al, 1994; Jackman et al, 1997; details: ref Stephens et al, 1994, Jackman et al, 1997, cited from earlier work

SMILES: C#CCN(Cc1cc2c(=O)[nH]c(C)nc2cc1C)c1ccc(C(=O)N[C@@H](CCc2nnn[nH]2)C(=O)O)c(F)c1 [ZD9331, (2S)-2-{O-fluoro-p-(N-(2,7-dimethyl-4-oxo-3,4-dihydroquinazolin-6-ylmethyl)-N-(prop-2-ynyl)amino}benzamido}-4-(tetrazol-5-yl)butyric acid]
- effect on renal function (GFR) (DBA-2 mice; 50 mg kg-1, 4 h after administration): minimal effects on renal function
- effect on GFR (DBA-2 mice; 150 mg kg-1 i.p., 24 h after administration): no effect
- effect on GFR (DBA-2 mice; 150 mg kg-1 i.v., 4 h after administration): slight decrease in GFR
- effect on GFR (DBA-2 mice; 150 mg kg-1 i.v., 24 h after administration): no effect
- effect on GFR (DBA-2 mice; 200 mg kg-1 i.p.): minimal
- effect on GFR (DBA-2 mice; 200 mg kg-1 i.v., 4 h after administration): profound decrease in GFR
- effect on GFR (DBA-2 mice; 200 mg kg-1 i.v., 24 h after administration): GFR inhibition was less profound
- nephrotoxicity (DBA-2 mice; active anti-tumour dose, 50 mg kg-1 i.p., mice): non-nephrotoxic
- effect on renal function (GFR) (DBA-2 mice; doses up to 150 mg kg-1 i.v. or i.p., 4 or 24 h post treatment): no evidence of compromised renal function
- anti-tumour activity (L5178Y (TK-/-) lymphoma; 24-h s.c. infusion, 3 mg kg-1): anti-tumour activity
- anti-tumour activity (L5178Y (TK-/-) lymphoma; bolus administration, 50 mg kg-1): anti-tumour activity
